The target of this assay is T1, human GPR139 (Homo sapiens, UniProt Q6DWJ6).
T1 construct: expressed in transfected cells; host or cells: CHO-TREx (Life Technologies) cells, expression induced with doxycycline
T1 sequence (Q6DWJ6 1-353): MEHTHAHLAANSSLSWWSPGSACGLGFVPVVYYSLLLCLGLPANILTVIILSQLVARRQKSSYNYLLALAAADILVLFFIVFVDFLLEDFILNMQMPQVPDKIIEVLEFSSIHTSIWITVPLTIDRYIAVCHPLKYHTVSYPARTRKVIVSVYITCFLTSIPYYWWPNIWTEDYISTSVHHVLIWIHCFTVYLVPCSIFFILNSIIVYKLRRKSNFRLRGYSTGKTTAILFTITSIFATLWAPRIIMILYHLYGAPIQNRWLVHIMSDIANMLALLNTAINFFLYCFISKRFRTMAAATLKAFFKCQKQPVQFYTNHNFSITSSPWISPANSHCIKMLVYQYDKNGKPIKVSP
Briefly: Inhibition rate of the amount of IP1 in GPR139-expressed CHO cells (inverse agonist assay, Test Example 2). The class given is cell-based. The following applies: CHO, relative value, inhibition rate of Example Compound 2 in Test Example 1 defined as 100%. How it is done:
The measurement of IP1 was made using an IP-ONE HTFR assay kit (cis-bio) and CHO-TREx (Life Technologies) cells stably transfected with GPR139. The CHO-TREx cells expressed human GPR139 with a tetracycline-inducing element. The cells were cultured in a medium containing F12K and 10% tetracycline-free FBS, and the expression of human GPR139 was induced over the course of 17 hours under conditions of 37° C. and 5% CO2 in the presence of 2 μg/mL of doxycycline (Clontech, 631311) in the growth medium on the day before assay. On the day of the test, after the cells were washed with 10 mL of PBS, the cells were detached with TrypLE Express (Life Technologies) and centrifuged at 1,000 rpm to form pellets, and a cell suspension was then prepared using a stimulation buffer (cis-bio, included in the IP-ONE HTRF assay kit).
The compound was diluted with the stimulation buffer, and 4 μL was added to a 384-well white assay plate (Greiner). The cell suspension was added so that there were 2000 cells per well, and the assay plate was left to stand for 40 minutes at 37° C. Equal amounts of IP1-d2 and Ab-Crp solutions (both available from cis-bio, included in the IP-ONE HTRF assay kit) prepared with a lysis buffer (cis-bio, included in the IP-ONE HTRF assay kit) were mixed, and 4 μL was added to the assay plate and left to stand for one hour at room temperature. After the fluorescence strengths of two wavelengths were measured by the HTRF settings of Envision (PerkinElmer), the value of Ratio={(Signal 665 nm)/(Signal 615 nm)}×10000 was calculated.
Measurement of the Inhibition Rate of the Amount of IP1 in GPR139-Expressed CHO Cells (Inverse Agonist Assay)
The activities of the compounds of Examples 1 and 3 to 167 were expressed as relative values in Table 2 by measuring the inhibition rate of the amount of IP1 with the same method as in Test Example 1 and defining the inhibition rate of the amount of IP1 of Example Compound 2 in Test Example 1 as […].

What is called inhibition is the relative decrease from the control value, in per cent. As to `CCn1cc(Cn2ccn(-c3nc(N4CCO[C@H](C)C4)cc(C(F)(F)F)c3C)c2=O)cn1` [Example 42, 1-[(1-ethyl-1H-pyrazol-4-yl)methyl]-3-{3-methyl-6-[(2R)-2-methylmorpholin-4-yl]-4-(trifluoromethyl)pyridin-2-yl}-1,3-dihydro-2H-imidazol-2-one], the inhibition at 30 µM stood at 99%.

As for `Cc1nn(-c2cc(N(C)C3CCOCC3)cc(C(F)(F)F)c2F)c(=O)n1Cc1cnn(C(C)C)c1` [Example 92, 2-{2-fluoro-5-[methyl(oxan-4-yl)amino]-3-(trifluoromethyl)phenyl}-5-methyl-4-{[1-(propan-2-yl)-1H-pyrazol-4-yl]methyl}-2,4-dihydro-3H-1,2,4-triazol-3-one], the inhibition at 30 µM came out at 99%.

On to `CCn1cc(Cn2c(C)cn(-c3cc(C(F)(F)F)nn3CCC3CCC3)c2=O)cn1` [Example 99, 1-[1-(2-Cyclobutylethyl)-3-(trifluoromethyl)-1H-pyrazole-5-yl]-3-[(I-ethyl-1H-pyrazole-4-yl)methyl]-4-methyl-1,3<dihydro-2H-imidazole-2-one], for which the inhibition at 30 µM turned out to be 101%.

Take `Cc1cn(-c2nc(N3CCO[C@H](C)C3)cc(C(F)(F)F)c2F)c(=O)n1Cc1cnn(C(C)C)c1` [Example 64, 1-{3-fluoro-6-[(2R)-2-methylmorpholin-4-yl]-4-(trifluoromethyl)pyridin-2-yl}-4-methyl-3-{[1-(propan-2-yl)-1H-pyrazol-4-yl]methyl}-1,3-dihydro-2H-imidazol-2-one]: the inhibition at 30 µM was found to be 98%.

With `CCn1cc(Cn2cc(C)n(-c3cc(N4CCOC(F)(F)C4)cc(C(F)(F)F)c3)c2=O)cn1` [Example 41, 3-[3-(2,2-difluoromorpholin-4-yl)-5-(trifluoromethyl)phenyl]-1-[(1-ethyl-1H-pyrazol-4-yl)methyl]-4-methyl-1,3-dihydro-2H-imidazol-2-one], the inhibition at 30 µM is 101%.

`CCn1cc(Cn2c(C)cn(-c3cc(N4CCC(F)(F)CC4)cc(C4CC4)c3F)c2=O)cn1` [Example 165, 1-[3-cyclopropyl-5-(4,4-difluoropiperidin-1-yl)-2-fluorophenyl]-3-[(1-ethyl-1H-pyrazol-4-yl)methyl]-4-methyl-1,3-dihydro-2H-imidazol-2-one]: the inhibition at 30 µM amounted to 97%.

In the case of `CCn1cc(Cn2ccn(-c3cc(N4CCO[C@H](C)C4)cc(C4CC4)c3F)c2=O)cn1` [Example 44, 1-{3-cyclopropyl-2-fluoro-5-[(2R)-2-methylmorpholin-4-yl]phenyl}-3-[(1-ethyl-1H-pyrazol-4-yl)methyl]-1,3-dihydro-2H-imidazol-2-one], the inhibition at 30 µM came to 100%.

Turning to `CCn1cc(Cn2cc(C)n(-c3cc(OCC4CCO4)cc(C(F)(F)F)c3)c2=O)cn1` (stereo not shown) [Example 49, 1-[(1-ethyl-1H-pyrazol-4-yl)methyl]-4-methyl-3-{3-[(oxetan-2-yl)methoxy]-5-(trifluoromethyl)phenyl}-1,3-dihydro-2H-imidazol-2-one], the inhibition at 30 µM stood at 102%.

In the case of `CCn1cc(Cn2ccn(-c3cc(N4CCCC(F)(F)C4)cc(C(F)(F)F)c3F)c2=O)cn1` [Example 37, 1-[5-(3,3-difluoropiperidin-1-yl)-2-fluoro-3-(trifluoromethyl)phenyl]-3-[(1-ethyl-1H-pyrazol-4-yl)methyl]-1,3-dihydro-2H-imidazol-2-one], the inhibition at 30 µM was found to be 99%.

`CCc1nn(-c2cc(N3CCC(F)(F)CC3)cc(C(F)(F)F)c2F)c(=O)n1Cc1cnn(CC)c1` [Example 138, 2-[5-(4,4-difluoropiperidin-1-yl)-2-fluoro-3-(trifluoromethyl)phenyl]-5-ethyl-4-[(1-ethyl-1H-pyrazol-4-yl)methyl]-2,4-dihydro-3H-1,2,4-triazol-3-one]: the inhibition at 30 µM stood at 100%.

Take `CCn1cc(Cn2c(C)nn(-c3cc(C(F)(F)F)c(F)c(N4CCC(F)(F)CC4)n3)c2=O)cn1` [Example 154, 2-[6-(4,4-difluoropiperidin-1-yl)-5-fluoro-4-(trifluoromethyl)pyridin-2-yl]-4-[(1-ethyl-1H-pyrazol-4-yl)methyl]-5-methyl-2,4-dihydro-3H-1,2,4-triazol-3-one]: the inhibition at 30 µM is 98%.

As to `CCn1cc(Cn2ccn(-c3cc(N(C)C4CCOCC4)cc(C(F)(F)F)c3F)c2=O)cn1` [Example 10, 1-[(1-ethyl-1H-pyrazol-4-yl)methyl]-3-{2-fluoro-5-[methyl(oxan-4-yl)amino]-3-(trifluoromethyl)phenyl}-1,3-dihydro-2H-imidazol-2-one], the inhibition at 30 µM worked out at 100%.

Consider `CCn1cc(Cn2ccn(-c3cc(N(C)C4CCOCC4)cc(C(C)(C)F)c3F)c2=O)cn1` [Example 122, 1-[(1-ethyl-1H-pyrazol-4-yl)methyl]-3-{2-fluoro-3-(2-fluoropropan-2-yl)-5-[methyl(oxan-4-yl)amino]phenyl}-1,3-dihydro-2H-imidazol-2-one], for which the inhibition at 30 µM amounted to 103%.

Turning to `CCn1cc(Cn2c(C)cn(-c3cc(N4CCO[C@H](C)C4)cc(Cl)c3F)c2=O)cn1` [Example 139, 1-{3-chloro-2-fluoro-5-[(2R)-2-methylmorpholin-4-yl]phenyl}-3-[(1-ethyl-1H-pyrazol-4-yl)methyl]-4-methyl-1,3-dihydro-2H-imidazol-2-one], the inhibition at 30 µM came to 98%.

On to `CCn1cc(Cn2ccn(-c3cc(N4CCC(F)(F)CC4)cc(N4CCC(F)(F)CC4)c3F)c2=O)cn1` [Example 152, 1-[3,5-bis(4,4-difluoropiperidin-1-yl)-2-fluorophenyl]-3-[(1-ethyl-1H-pyrazol-4-yl)methyl]-1,3-dihydro-2H-imidazol-2-one], for which the inhibition at 30 µM worked out at 98%.

For the compound `CCc1cn(Cc2cnn(CC)c2)c(=O)n1-c1cc(C(F)(F)F)cc(N2CCO[C@H](C)C2)n1` [Example 157, 4-ethyl-1-[(1-ethyl-1H-pyrazol-4-yl)methyl]-3-{6-[(2R)-2-methylmorpholin-4-yl]-4-(trifluoromethyl)pyridin-2-yl}-1,3-dihydro-2H-imidazol-2-one], the inhibition at 30 µM turned out to be 101%.

For the compound `CCn1cc(Cn2ccn(-c3cc(N4CCC(F)(F)CC4)cc(C(F)(F)F)c3F)c2=O)cn1` [Example 36, 1-[5-(4,4-difluoropiperidin-1-yl)-2-fluoro-3-(trifluoromethyl)phenyl]-3-[(1-ethyl-1H-pyrazol-4-yl)methyl]-1,3-dihydro-2H-imidazol-2-one], the inhibition at 30 µM came to 101%.

On to `CCn1cc(Cn2c(C)c(C)n(-c3cc(N4CCO[C@H](C)C4)cc(C(F)(F)F)c3)c2=O)cn1` [Example 16, 1-[(1-ethyl-1H-pyrazol-4-yl)methyl]-4,5-dimethyl-3-(3-[(2R)-2-methylmorpholin-4-yl]-5-(trifluoromethyl)phenyl}-1,3-dihydro-2H-imidazol-2-one], for which the inhibition at 30 µM was 100%.

On to `CCn1cc(Cn2cc(C)n(-c3cc(Br)cc(N4CCOC(C)(C)C4)c3)c2=O)cn1` [Example 137, 3-[3-bromo-5-(2,2-dimethylmorpholin-4-yl)phenyl]-1-[(1-ethyl-1H-pyrazol-4-y)methyl]-4-methyl-1,3-dihydro-2H-imidazol-2-one], for which the inhibition at 30 µM was 98%.

With `CCn1cc(Cn2cc(C)n(-c3cc(N4CCC(F)(F)CC4)cc(C(F)(F)F)c3)c2=O)cn1` [Example 19, 3-[3-(4,4-difluoropiperidin-1-yl)-5-(trifluoromethyl)phenyl]-1-[(1-ethyl-1H-pyrazol-4-yl)methyl]-4-methyl-1,3-dihydro-2H-imidazol-2-one], the inhibition at 30 µM is 100%.

`CCn1cc(Cn2cc(C)n(-c3cc(OC[C@@H]4CCCO4)cc(C(F)(F)F)c3)c2=O)cn1` [Example 66, 1-[(1-ethyl-1H-pyrazol-4-yl)methyl]-4-methyl-3-[3-{[(2S)-oxolan-2-yl]methoxy}-5-(trifluoromethyl)phenyl]-1,3-dihydro-2H-imidazol-2-one]: the inhibition at 30 µM turned out to be 99%.

For the compound `CCn1cc(Cn2ccn(-c3cc(N4CCC(F)(F)C4)cc(C(F)(F)F)c3F)c2=O)cn1` [Example 39, 1-[5-(3,3-difluoropyrrolidin-1-yl)-2-fluoro-3-(trifluoromethyl)phenyl]-3-[(1-ethyl-1H-pyrazol-4-yl)methyl]-1,3-dihydro-2H-imidazol-2-one], the inhibition at 30 µM stood at 99%.

For the origin of these results see patent publication US12630534B2 (TAKEDA PHARMACEUTICAL COMPANY LIMITED, priority 2020, dated 2026).
